Read-outs that look alike come from different tables or passages of the source.
What was measured:
hApoA-I transgenic mice = experiment: hApoA-I transgenic mice, oral gavage for 14 days; type: in vivo; conditions: for change in vivo at 10 mg/kg / change in vivo at 30 mg/kg: Mus musculus, po, 336 h, relative to pretreatment, read-out: ApoA-I (% change); for change in vivo at 10 mg/kg: 10 mg/kg BID 14 days; for change in vivo at 30 mg/kg: 30 mg/kg BID 14 days
Description: To test whether the efficacy of compounds of the invention observed in vitro extended to an in vivo model, transgenic mice carrying multiple copies of the human ApoA-I gene (C57BI/6-tgn(apoa1)1 rub, Jackson Laboratory, Bar Harbor, Me.) were exposed to representative compounds of the invention. The exogenous human ApoA-I gene in these mice enables them to express the human ApoA-I protein under the control of this promoter.
Seven to eight week old male mice, transgenic for human ApoA-I were housed five per cage (10″×20″×8″ with aspen chip bedding) with pelleted Rodent chow [Purina 5001] and water available at all times. After an acclimation period of 1 week, animals were individually identified by numbering on tail and weighed. Mice were pre bled via the retro-orbital plexus, and 150 μl of blood was collected in 1.5 ml Eppendorf tube containing 1 μl of heparin and chilled on ice. Plasma was collected after centrifuging the whole blood at 14000 rpm [TOMY high speed micro-refrigerated centrifuge NTX-150] for 10 minutes at 4° C. and frozen at −80° C. Plasma was analyzed for: human ApoA-I by a human ApoA-I enzyme-linked Immunoassay [Direct Sandwich ELISA Calbiochem Cat#178422, Calbiochem Cat#178452, lot #B9076, Calbiochem Cat #178470 conjugated to Horse Radish Peroxidase (Cedarlane Cat#80220)]; total cholesterol [Ponte scientific reagents: # C7509-STD, #L7580-18, # C7510]; and triglyceride [Pointe Scientific Reagents: # 7532-STD, # L7580-18, #7532]. All samples were measured in triplicates and expressed as mg/dl. Mice were grouped based on the above plasma parameters and having an average body weight of 25 gm.
Two days following pre-bleed, mice were dosed by oral gavage daily for 14 days using a 20 gauge, 11/2″ curved disposable feeding needle [Popper & Sons]; when BID, mice were gavaged morning and afternoon (8 am and 5 pm); when SID mice were gavaged in morning (8 am). Compounds were prepared each day in vehicle. Test article(s), a positive control fenofibrate, and vehicle were dosed at volume of 5 mL/kg of body weight as a suspension (0.1 mL/20 g mouse). Fenofibrate was obtained commercially [SIGMA #F 6020]. Mice weights were recorded on day 1, 4, 7, 10, 12, and 15. On day 15, mice were weighed and fasted for 4 hours, sacrificed by inhalation of CO2 and blood was obtained via cardiac puncture (0.7-1.0 ml). Plasma was collected and frozen at −80° C. Samples were assayed for ApoA-I, total cholesterol, triglyceride and HDL-C by HPLC [Polaris 200 with an auto sampler Prostar 410 from Varian on a Superose 6 10/30 column from Amersham]. Samples were sent for NMR analysis [LipoScience] to identify particle size and subclass for lipoproteins. During necropsy, liver, brown fat, and the whole of small and large intestines were collected, cleaned with cold PBS and frozen at −80° C. for further analysis of compound levels. Variation between studies, in ApoA-I changes, was observed. Therefore, a relative comparison between individual(s) in the study groups was used.
4′-hydroxyflavone (10 mg/kg of body weight), 4-(4-oxo-4H-chromen-2-yl)phenyl nicotinate (Example 71) (10 mg/kg of body weight) and fenofibrate (100 mg/kg of body weight) were BID administered to hApoA-I transgenic mice daily for fourteen days by oral gavage in 0.5% Methylcellulose (w/v)/1% Tween 80 (w/v). Plasma was assayed for ApoA-I (FIG. 3A), HDL cholesterol and total cholesterol (FIG. 3B) and percent weight gain (FIG. 3C).
4′-hydroxyflavone (3 mg/kg of body weight), 4′-hydroxyflavone (10 mg/kg of body weight), 4′-hydroxyflavone (30 mg/kg of body weight), 2-(4-Hydroxy-phenyl)-pyrano[2,3-b]pyridin-4-one (10 mg/kg of body weight), and fenofibrate (100 mg/kg of body weight) were BID administered to hApoA-I transgenic mice daily for fourteen days by oral gavage in 0.5% methylcellulose (w/v)/1% Tween 80 (w/v). In this experiment plasma was assayed for ApoA-I. […]

human ApoA-I promoter = experiment: ApoA-I promoter induction in Caco-2 intestinal cells (pAI.474-Luc luciferase reporter); type: cell-based; conditions: Caco-2 cells, 15 μM, 48 hours incubation, luciferase activity vs control samples
Method: To examine the effects of compounds of the invention to increase ApoA-I expression, Caco-2 cells, an intestinal cell line derived from human epithelial intestinal cells, were grown under conditions recommended by the ATCC and summarized in United States Patent Application Publication No. 20040033480 (“Wong”), incorporated herein by reference.
Briefly, the promoter region of the gene encoding human ApoA-I was isolated and ligated upstream of the firefly luciferase gene to construct the reporter plasmid pAI.474-Luc. This reporter plasmid and pRSV-β-galactosidase (as a control for transfection efficiency) were co-transfected to Caco-2 cells. The Caco-2 cells were then incubated in a MEM selection media containing 20% fetal calf serum supplemented with G418 (final concentration: 0.5 mg/mL, Gibco) to give established strains that stably express from the reporter gene. The strains were seeded in 6-well culture plates and incubated for 48 hours at 37° C. under 5% carbon dioxide. Cells were starved for 24 hrs in MEM selection media containing 0.5% FBS. Then, a solution of a compound of the invention in DMSO or other appropriate solvent was added to the wells at a final concentration of 0 to 100 μM in MEM selection media containing 0.5% FBS.
After further incubation for 48 hours, the cells were harvested and lysed using Reporter Lysis Buffer (PROMEGA E3971), and 50 μL of luciferase assay reagent (PROMEGA E4550 Luciferase Reporter 1000 assay system) was added to measure luciferase activity with a luminometer (Fluoroskan Ascent FL from Thermo electron Corporation). Luciferase activity was normalized to lysate protein concentrations, measured using Bradford Reagent (BioRad Protein Assay reagent Cat #500-0006). The luciferase activity of cells treated with various concentrations of test compounds was compared to that of solvent control sample (i.e., solvent without any compound of the present invention added) and untreated control sample.

Caco-2 permeability = type: in vitro ADME, human; conditions: human
Description: The Caco-2 cell drug transport model is widely used for screening compounds in drug discovery to assess intestinal transport and predict absorption rates.

[1] = in vitro Caco-2 intestinal transport model, read-out: % Transported Paap
[2] = Table 6 fourth group, Control 3 1.11
[3] = Table 6 third group, Control 3 (F-101) (6.32)

Compound | Papp (Caco-2 permeability; Caco-2) | melting point | ApoA-I Promoter Induction (human ApoA-I promoter) | further results
O=c1cc(-c2ccc(O)cc2)oc2ncccc12 [2-(4-hydroxy-phenyl)-pyrano[2,3-b]pyridin-4-one] | – | – | – | plasma ApoA-I, net % change over vehicle (hApoA-I transgenic mice; Experiment B, 10 mpk BID oral gavage, two weeks): 3.75%
O=c1cc(-c2ccccc2)oc2cc(O)cc(O)c12 [5,7-Dihydroxy-2-phenyl-4H-chromen-4-one, 5,7-Dihydroxy-2-phenyl-chromen-4-one, reference compound] | – | – | increased | Papp (Caco-2 permeability; [1]): 0.122 ×10⁻⁶ cm/s
O=c1cc(-c2ccc(O)cc2)oc2cc(O)cc(O)c12 [5,7-dihydroxy-2-(4-hydroxyphenyl)-4H-chomen-4-one, reference compound] | – | – | – | Papp (Caco-2 permeability; [1]): 1.5 ×10⁻⁶ cm/s
COc1ccc2c(=O)cc(-c3ccc(O)cc3)oc2c1 [7-methoxy-2-(4-hydroxyphenyl)-4H-chromen-4-one, reference compound] | – | – | – | Papp (Caco-2 permeability; [1]): 6.92 ×10⁻⁶ cm/s
O=c1cc(-c2ccc(O)cc2)oc2cccnc12 [Example 35, 2-(4-hydroxy-phenyl)-pyrano[3,2-b]pyridin-4-one] | 1.98 ×10⁻⁶ cm/s | – | increase | –
Cc1cc(-c2cc(=O)c3cccnc3o2)ccc1O [Example 38, 2-(4-hydroxy-3-methylphenyl)-4H-pyrano[2,3-b]pyridine-4-one] | 0.596 ×10⁻⁶ cm/s | 300 to 302 °C | increased | –
O=c1cc(-c2ccc(O)cn2)oc2ccccc12 [Example 46, 2-(5-hydroxy-pyridin-2-yl)-chromen-4-one] | 1.23 ×10⁻⁶ cm/s | – | increased | change in vivo at 10 mg/kg (hApoA-I transgenic mice; [3]): 5.62%
O=c1cc(-c2ccc(O)nc2)oc2ccccc12 [Example 48, 2-(6-Hydroxypyridin-3-yl)-chromen-4-one] | – | 296 to 297 °C | no increase | change in vivo at 10 mg/kg (hApoA-I transgenic mice; [2]): 4.94%
O=c1cc(-c2ccc(O)cc2)[nH]c2ccccc12 [Example 51, 2-(4-Hydroxy-phenyl)-1H-quinolin-4-one] | – | – | no increase | change in vivo at 10 mg/kg (hApoA-I transgenic mice; [3]): 32.8%
CC(=O)Oc1ccc(-c2cc(=O)c3ccccc3o2)cc1 [Example 72, 4-(4-oxo-4H-chromen-2-yl)phenyl acetate] | 2.65 ×10⁻⁶ cm/s | – | increased | –
CC(=O)Oc1ccc(C2=COc3ccccc3O2)cc1 [Example 77, 4-(Benzo[b][1,4]dioxin-2-yl)phenyl acetate] | – | 123 to 125 °C | increased | –
O=c1cc(-c2ccc([N+](=O)[O-])cc2)oc2ncccc12 [Example 80, 2-(4-Nitrophenyl)-4H-pyrano[2,3-b]pyridine-4-one] | – | 261 to 263 °C | no increase | –
O=c1c(-c2ccc(O)cc2)coc2ccccc12 [Example 84, 3-(4-Hydroxyphenyl)-4H-chromen-4-one] | – | 237 to 238 °C | increased | –
O=c1c(-c2ccc(O)cc2)coc2ncccc12 [Example 85, 3-(4-Hydroxyphenyl)-4H-pyrano[2,3-b]pyridine-4-one] | – | 262 to 264 °C | increased | –
CC(C)OC(=O)C(C)(C)Oc1ccc(C(=O)c2ccc(Cl)cc2)cc1 [fenofibrate, reference compound] | – | – | – | liver weight gain normalized to body weight, compared to vehicle (hApoA-I transgenic mice; Experiment A, 100 mg/kg BID, day 15, male mice): significant increase; change in vivo at 30 mg/kg (hApoA-I transgenic mice; [2]): 68.9%; change in vivo at 30 mg/kg (hApoA-I transgenic mice; Table 6 second group, Control 1 3.42): 127%; change in vivo at 30 mg/kg (hApoA-I transgenic mice; Table 6 third group, Control 3 (6.32)): 74.4%

Second part, led by results:

Papp (Caco-2 permeability; Caco-2) | melting point | Compound | ApoA-I Promoter Induction (human ApoA-I promoter) | further results
0.531 ×10⁻⁶ cm/s | 275 to 276 °C | O=c1cc(-c2cc(F)c(O)c(F)c2)oc2ccccc12 [Example 6, 2-(3,5-difluoro-4-hydroxyphenyl)chromen-4-one] | – | –
0.695 ×10⁻⁶ cm/s | 255 to 256 °C | Cc1cc(-c2cc(=O)c3ccccc3o2)cc(C)c1O [Example 7, 2-(4-hydroxy-3,5-dimethylphenyl)chromen-4-one] | increased | –
– | 294 to 296 °C | O=c1cc(-c2ccc(O)cc2)oc2cnccc12 [Example 36, 2-(4-Hydroxyphenyl)pyrano[2,3-c]pyridin-4-one] | increased | change in vivo at 10 mg/kg (hApoA-I transgenic mice; [2]): 17%
6.48 ×10⁻⁶ cm/s | – | O=c1cc(-c2ccncc2)oc2ccccc12 [Example 47, 2-pyridin-4-yl-chromen-4-one] | increased | change in vivo at 10 mg/kg (hApoA-I transgenic mice; [3]): 22.7%
– | 84 to 86 °C | CC(=O)Oc1ccc(C2=CC(C)(C)c3ccccc3O2)cc1 [Example 69, 4-(4,4-Dimethyl-4H-chromen-2-yl)phenyl acetate] | increased | –
– | 137 to 140 °C | Oc1ccc(C2=COc3ccccc3O2)cc1 [Example 70, 4-(Benzo[b][1,4]dioxin-2-yl)phenol] | increased | –
– | 167 to 169 °C | CC(=O)Oc1ccc(-c2cc(=O)c3cccnc3o2)cc1 [Example 75, 4-(4-Oxo-4H-pyrano[2,3-b]pyridine-2-yl)phenyl acetate] | increased | –

Source: patent US8093273B2, “Flavanoids and isoflavanoids for the prevention and treatment of cardiovascular diseases” (Resverlogix Corp., priority 2004, dated 2012)
